Patent publication US20250019377A1 (JACOBIO PHARMACEUTICALS CO., LTD, priority 2021, published 2025)

Key:
[1] = system: AsPC-1 cells (K-Ras G12D); test: 2D cell growth inhibition assay, AsPC-1; format: cell-based; conditions: Homo sapiens, ASPC1, 144 h, AsPC-1, K-Ras G12D, 6 days, absolute IC50
AGS cells (K-Ras G12D) = test: 2D cell growth inhibition assay, AGS; format: cell-based; conditions: Homo sapiens, 144 h, 6 days, absolute IC50
K-Ras G12V [2] = target: T1, K-Ras G12V (Homo sapiens, UniProt P01116, G12V); test: SOS1 catalyzed nucleotide exchange assay (GDP form K-Ras), K-Ras G12V; conditions: read-out: K-Ras G12V GDP Biochemical Activity (IC50)
K-Ras G12V [3] = target: T1, K-Ras G12V; test: biochemical
[4] = system: p-ERK in AGS cells (K-Ras G12D); test: Phospho-ERK1/2(THR202/TYR204) HTRF assay, AGS; format: cell-based; conditions: Homo sapiens, 2 h, 2 hours incubation
Experimental: (§1) p-ERK (MAPK pathway) inhibition activity of each of compounds in a variety of K-Ras mutant and K-Ras WT cell lines indicated in Table 23 was evaluated.
(§2) Each of cells in culture medium was seeded in 96-well plates at density indicated in Table 23 and then put in a cell incubator to incubate overnight. The next day, the culture medium was removed and the compound diluted in assay medium was added in each well. […] 10 μL of cell lysates from the 96-well plates were transferred to a 384-well plate (Greiner) containing 2.5 μL/well HTRF® pre-mixed antibodies (Cisbio 64AERPEH). The plate was incubated 4 hours at 25° C. and then read HTRF signals on Tecan Spark multimode microplate reader. The data were analyzed using a 4-parameter logistic model to calculate IC50 values.

SW620 cells (K-Ras G12V) = test: 2D cell growth inhibition assay, SW620; format: cell-based; conditions: Homo sapiens, SW-620, 144 h, 6 days, absolute IC50
[5] = system: p-ERK in SW620 cells (K-Ras G12V); test: Phospho-ERK1/2(THR202/TYR204) HTRF assay, SW620; format: cell-based; conditions: Homo sapiens, SW-620, 2 h, 2 hours incubation
Experimental: as §1, §2

T1 sequence (P01116 1-169 isoform P01116-2 G12V): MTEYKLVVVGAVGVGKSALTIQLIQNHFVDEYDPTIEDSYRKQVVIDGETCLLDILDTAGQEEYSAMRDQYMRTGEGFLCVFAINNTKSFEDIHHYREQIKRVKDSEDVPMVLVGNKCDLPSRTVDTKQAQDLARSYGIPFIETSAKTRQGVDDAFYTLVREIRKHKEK

Compound	IC50 [1]	IC50 (AGS cells (K-Ras G12D))	IC50 (K-Ras G12V [2])	IC50 (K-Ras G12V [3])	IC50 [4]	IC50 (SW620 cells (K-Ras G12V))	IC50 [5]
C#Cc1c(F)ccc2cc(O)cc(-c3ncc4c(N5CCOCC(F)(F)C5)nc(OC[C@@]56CCCN5C[C@H](F)C6)nc4c3F)c12 [Compound 18, 4-(4-(6,6-difluoro-1,4-oxazepan-4-yl)-8-fluoro-2-(((2R,7aS)-2-fluorotetrahydro-1H-pyrrolizin-7a(5H)-yl)methoxy)pyrido[4,3-d]pyrimidin-7-yl)-5-ethynyl-6-fluoronaphthalen-2-ol trifluoroacetic acid]	95.7 nM	7.96 nM	1.41 nM	107 nM	5.99 nM	5.68 nM	2.1 nM
C#Cc1c(F)ccc2cc(O)cc(-c3nc(C(F)F)c4c(N5CCCOCC5)nc(OC[C@@]56CCCN5C[C@H](F)C6)nc4c3F)c12 [Compound 34, 4-(5-(difluoromethyl)-8-fluoro-2-(((2R,7aS)-2-fluorotetrahydro-1H-pyrrolizin-7a(5H)-yl)methoxy)-4-(1,4-oxazepan-4-yl)pyrido[4,3-d]pyrimidin-7-yl)-5-ethynyl-6-fluoronaphthalen-2-ol trifluoroacetic acid]	323 nM	75.4 nM	2.12 nM	483 nM	19.4 nM	205 nM	40 nM
C#Cc1c(F)ccc2cc(O)cc(-c3nc(C4CC4)c4c(N5CCCOCC5)nc(OC[C@@]56CCCN5C[C@H](F)C6)nc4c3F)c12 [Compound 35, 4-(5-cyclopropyl-8-fluoro-2-(((2R,7aS)-2-fluorotetrahydro-1H-pyrrolizin-7a(5H)-yl)methoxy)-4-(1,4-oxazepan-4-yl)pyrido[4,3-d]pyrimidin-7-yl)-5-ethynyl-6-fluoronaphthalen-2-ol trifluoroacetic acid]	88.5 nM	5.63 nM	5.81 nM	22.1 nM	1.42 nM	9.2 nM	11.9 nM
C#Cc1c(F)ccc2cc(O)cc(-c3nc(CO)c4c(N5CCCOCC5)nc(OC[C@@]56CCCN5C[C@H](F)C6)nc4c3F)c12 [Compound 36, 5-ethynyl-6-fluoro-4-(8-fluoro-2-(((2R,7aS)-2-fluorotetrahydro-1H-pyrrolizin-7a(5H)-yl)methoxy)-5-(hydroxymethyl)-4-(1,4-oxazepan-4-yl)pyrido[4,3-d]pyrimidin-7-yl)naphthalen-2-ol trifluoroacetic acid]	734 nM	37.3 nM	7.96 nM	267 nM	12.4 nM	112 nM	48.8 nM
Oc1cc(-c2ncc3c(N4CCCOCC4)nc(OC[C@@]45CCCN4C[C@H](F)C5)nc3c2F)c2c(F)c(F)ccc2c1 [Compound 40, 5,6-difluoro-4-(8-fluoro-2-(((2R,7aS)-2-fluorotetrahydro-1H-pyrrolizin-7a(5H)-yl)methoxy)-4-(1,4-oxazepan-4-yl)pyrido[4,3-d]pyrimidin-7-yl)naphthalen-2-ol trifluoroacetic acid]	91.3 nM	9.24 nM	1.94 nM	124 nM	5.68 nM	24.8 nM	14.1 nM
C#Cc1c(F)ccc2cc(O)cc(-c3nc(SC)c4c(N5CCCOCC5)nc(OC[C@@]56CCCN5C[C@H](F)C6)nc4c3F)c12 [Compound 47, 5-ethynyl-6-fluoro-4-(8-fluoro-2-(((2R,7aS)-2-fluorotetrahydro-1H-pyrrolizin-7a(5H)-yl)methoxy)-5-(methylthio)-4-(1,4-oxazepan-4-yl)pyrido[4,3-d]pyrimidin-7-yl)naphthalen-2-ol trifluoroacetic acid]	106 nM	51.7 nM	4.38 nM	152 nM	17.7 nM	41.6 nM	40.9 nM
